According to patent publication US12023308B2, “Agents for reversing toxic proteinopathies” (THE BROAD INSTITUTE, INC., priority 2019, dated 2024):

Columns and labels:
[1] = tested on: MUC1-fs; assay: MUC1-fs IF in MKD patient iPSC-derived kidney organoids; type: cell-based, human; conditions: 10 μM, 72 hours, organoids P1-P3
Protocol: Kidney organoids were immersion-fixed for 15 min in 4% PFA at 4° C. and subsequently frozen in OCT using dry ice and 100% ethanol. Six […] cryostat sections (CM1950, Leica) were thaw-mounted on microscope slides (Fisherbrand™ Superfrost™ Plus, Fisher Scientific) and kept in the cryostat (at −26° C.) for the duration of the sectioning process. Prior to immunostaining, organoid sections were rinsed in PBS for 5 min, incubated for 20 min at room temperature (RT) in PBS blocking solution containing 5% normal donkey serum (530-100ML, EMD Millipore) and 1.5% Tween® 20 (P1379, Sigma-Aldrich), then incubated overnight at 4° C. with primary antibodies diluted in the same blocking solution (1:500, monoclonal Armenian hamster anti-MUC1, Ab80952, Abcam; 1:500, monoclonal Fab-A-VSH anti-fsMUC1, AbD22655.4, Bio-Rad; 1:300 monoclonal Rat anti-E Cadherin [DECMA-1], ab11512, Abcam; 1:500 polyclonal Rabbit anti-Laminin, L9393-100UL, Sigma-Aldrich; 1:500 Na/K-ATPase, ab76020, Abcam; 1:300 Fluorescein labeled Lotus Tetragonolobus Lectin (LTL), FL-1321, Vector laboratories; 1:100, polyclonal, Rabbit anti-TMED9, 21620-1-AP, Proteintech). […]
For a sequence analysis illustration, refer to FIG. 12B. […] MUC1-wt signal intensities were calculated within each WT reference region and averaged for entire section. […]

[2] = tested on: MUC1-wt; assay: BRD-4780 treatment in fs/+ knock-in mice, kidney MUC1-wt by IF; type: in vivo, mouse; conditions: daily oral gavage, 7 days
Protocol: Mice were anesthetized with 3 L/min 02 mixed with 3% isoflurane using the Combi-Vet® system (Rothacher Medical, Bern, Switzerland) for 5 min. Mouse kidneys were removed, sagittally cut to half and rapidly frozen in Tissue-Tek® O.C.T. Compound, Sakura® Finetek (OCT) (25608-930, VWR) using dry ice and 100% ethanol. Five […] sagittal cryosections (CM1950, Leica) were thaw mounted on microscope slides (Fisherbrand™ Superfrost™ Plus, Fisher Scientific) and kept in the cryostat (at −26° C.) for the duration of the sectioning process. Sections were immersion-fixed for 10 min in 4% PFA (15710, Electron Microscopy Sciences), then washed in PBS. The slides were then subjected to antigen retrieval by immersion in 10 mM citric acid buffer (pH=6), for 10 minutes at 95° C. […]
MUC1-fs and MUC1-wt mean intensities were calculated in kidney sections of mice treated with either vehicle or BRD-4780 (FIGS. 4A, 4B and 12A). As MUC1-fs and MUC1-wt levels varied in different kidney regions, and as sections might contain different portions of the different kidney regions, the levels of these proteins were analyzed only in NCC-positive distal convoluted tubules. […] Each fluorescent channel intensity was measured and a threshold was set for the identification of NCC positive cells. MUC1-fs and MUC1-wt levels were then calculated only in the NCC positive cells. […]

[3] = Munk et al., 1996; cited from earlier work

## CC(C)[C@@H]1[C@H]2CC[C@H](C2)[C@H]1N (racemic) [BRD-4780, 2-endo-amino-3-exo-isopropylbicyclo[2.2.1]heptane]
[1]
  MUC1-fs protein in patient kidney organoids: cleared the mutant protein from intracellular compartments in all patient organoids
[2]
  MUC1-wt in mouse kidneys: no effect on MUC1-wt
[3]
  anti-hypertensive efficacy in animal studies: lack of efficacy as an anti-hypertensive
